Starred links: 1 amine or outer side, 2 acyl side, 3 side chain; linkers in the order of their positions; H or OH if unused. Non-standard residues stand in square brackets, D forms with d. Residues, ends and D or L forms follow the SMILES beside them. Groups on a side chain read outwards from the residue. No end group written: not given here. *: point of attachment. γGlu = O=C(O)[C@H](CCC(=O)[*:2])N[*:1]; Palmitoyl = CCCCCCCCCCCCCCCC(=O)*
What was measured:
[1] = target: T1, glucagon receptor (Homo sapiens, UniProt P47871); assay: cAMP induction, firefly luciferase reporter assay, glucagon receptor; type: cell-based; conditions: compared to native glucagon
T1 construct: expressed in transfected cells; host or cells: HEK293
T1 sequence (P47871 26-477): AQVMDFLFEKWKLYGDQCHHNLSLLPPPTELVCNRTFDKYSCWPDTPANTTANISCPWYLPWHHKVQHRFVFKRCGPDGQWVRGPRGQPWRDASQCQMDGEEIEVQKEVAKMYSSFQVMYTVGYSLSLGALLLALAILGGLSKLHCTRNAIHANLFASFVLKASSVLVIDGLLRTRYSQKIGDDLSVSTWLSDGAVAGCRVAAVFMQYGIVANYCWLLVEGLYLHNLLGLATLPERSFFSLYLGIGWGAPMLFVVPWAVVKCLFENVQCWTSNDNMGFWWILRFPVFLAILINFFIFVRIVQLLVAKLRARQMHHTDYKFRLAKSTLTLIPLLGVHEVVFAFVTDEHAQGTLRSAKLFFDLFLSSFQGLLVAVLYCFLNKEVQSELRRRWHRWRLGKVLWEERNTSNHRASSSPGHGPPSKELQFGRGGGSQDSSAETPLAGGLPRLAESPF
Protocol: (§1) The ability of each peptide to induce cAMP was measured in a firefly luciferase-based reporter assay.
(§2) At the end of the incubation, 100 μL of LucLite luminescence substrate reagent (Perkin Elmer, Wellesley, Mass.) were added to each well. The plate was shaken briefly, incubated 10 min in the dark and light output was measured on MicroBeta-1450 liquid scintillation counter (Perkin-Elmer, Wellesley, Mass.).

[2] = target: T2, GLP-1 receptor (Homo sapiens, UniProt P43220); assay: cAMP induction, firefly luciferase reporter assay, GLP-1 receptor; type: cell-based; conditions: for EC50: Activity at GLP-1 Receptor EC50 [nM]; for Activity at GLP-1 Receptor % Relative Activity: compared to native GLP-1
T2 construct: expressed in transfected cells; host or cells: HEK293
T2 sequence (P43220 24-463): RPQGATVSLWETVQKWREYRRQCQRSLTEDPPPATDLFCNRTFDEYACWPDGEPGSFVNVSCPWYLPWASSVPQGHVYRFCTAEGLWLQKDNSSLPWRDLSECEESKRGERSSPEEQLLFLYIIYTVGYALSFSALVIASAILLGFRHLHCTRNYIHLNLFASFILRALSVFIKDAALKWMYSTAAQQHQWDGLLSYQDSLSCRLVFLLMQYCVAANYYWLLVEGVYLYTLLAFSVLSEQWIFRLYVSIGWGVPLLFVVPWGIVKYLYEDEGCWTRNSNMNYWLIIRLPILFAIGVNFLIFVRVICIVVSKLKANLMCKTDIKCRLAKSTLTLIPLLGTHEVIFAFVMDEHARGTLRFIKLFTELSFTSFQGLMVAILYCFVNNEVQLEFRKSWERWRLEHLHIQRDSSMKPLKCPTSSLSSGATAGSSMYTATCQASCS
Protocol: as §1, §2

Activity at Glucagon Receptor % Relative Activity ([1]; Table 3C) [%] | EC50 ([2]; Table 3C) [nM] | Activity at GLP-1 Receptor % Relative Activity ([2]; Table 3C) [%] | Activity at Glucagon Receptor % Relative Activity ([1]; Table 2B) [%] | Activity at GLP-1 Receptor % Relative Activity ([2]; Table 2B) [%] | Molecule
1500 | 0.003 | 1200 |  |  | CCCCCCCCCCCCCCCC(=O)N[C@@H](CCC(=O)NCCCC[C@H](NC(=O)[C@H](CC(=O)O)NC(=O)[C@H](CO)NC(=O)[C@@H](NC(=O)[C@H](Cc1ccccc1)NC(=O)[C@@H](NC(=O)CNC(=O)[C@H](CCC(N)=O)NC(=O)[C@@H](CO)NC(=O)[C@@H](N)Cc1c[nH]cn1)[C@@H](C)O)[C@@H](C)O)C(=O)N[C@@H](CO)C(=O)N[C@@H](CCCCN)C(=O)N[C@@H](Cc1ccc(O)cc1)C(=O)N[C@@H](CC(C)C)C(=O)N[C@@H](CC(=O)O)C(=O)N[C@@H](CCC(=O)O)C(=O)N[C@@H](CCC(N)=O)C(=O)N[C@@H](C)C(=O)N[C@@H](C)C(=O)N[C@@H](CCCCN)C(=O)N[C@@H](CCC(=O)O)C(=O)N[C@@H](Cc1ccccc1)C(=O)N[C@H](C(=O)N[C@@H](CS)C(=O)N[C@@H](Cc1c[nH]c2ccccc12)C(=O)N[C@@H](CC(C)C)C(=O)N[C@@H](CC(C)C)C(=O)N[C@@H](CC(=O)O)C(=O)N[C@H](C(=O)O)[C@@H](C)O)[C@@H](C)CC)C(=O)O [compound 76]
121 | 0.02 | 345 |  |  | CCCCCCCCCCCCCCCC(=O)N[C@@H](CCC(=O)NCCCC[C@H](NC(=O)[C@H](CC(=O)O)NC(=O)[C@H](CO)NC(=O)[C@@H](NC(=O)[C@H](Cc1ccccc1)NC(=O)[C@@H](NC(=O)CNC(=O)[C@H](CCC(N)=O)NC(=O)[C@@H](CO)NC(=O)[C@@H](N)Cc1c[nH]cn1)[C@@H](C)O)[C@@H](C)O)C(=O)N[C@@H](CO)C(=O)N[C@@H](CCCCN)C(=O)N[C@@H](Cc1ccc(O)cc1)C(=O)N[C@@H](CC(C)C)C(=O)N[C@@H](CC(=O)O)C(=O)N[C@@H](CCC(=O)O)C(=O)N[C@@H](CCC(N)=O)C(=O)N[C@@H](C)C(=O)N[C@@H](C)C(=O)N[C@@H](CCCCN)C(=O)N[C@@H](CCC(=O)O)C(=O)N[C@@H](Cc1ccccc1)C(=O)N[C@H](C(=O)N[C@@H](CS)C(=O)N[C@@H](Cc1c[nH]c2ccccc12)C(=O)N[C@@H](CC(C)C)C(=O)N[C@@H](CC(C)C)C(=O)N[C@@H](CC(=O)O)C(=O)N[C@@H](CCC(=O)O)C(N)=O)[C@@H](C)CC)C(=O)O [compound 82] (H-H[dS]QGTFTSDK([γGlu-Palmitoyl])SKYLDEQAAKEFICWLLDE-NH2; N-terminus assumed)
61 |  | 288 |  |  | CCCCCCCCCCCCCCCC(=O)N[C@@H](CCC(=O)NCCCC[C@H](NC(=O)[C@H](CC(=O)O)NC(=O)[C@H](CO)NC(=O)[C@@H](NC(=O)[C@H](Cc1ccccc1)NC(=O)[C@@H](NC(=O)CNC(=O)[C@H](CCC(N)=O)NC(=O)[C@@H](CO)NC(=O)[C@@H](N)Cc1c[nH]cn1)[C@@H](C)O)[C@@H](C)O)C(=O)N[C@@H](CO)C(=O)N[C@@H](CCCCN)C(=O)N[C@@H](Cc1ccc(O)cc1)C(=O)N[C@@H](CC(C)C)C(=O)N[C@@H](CC(=O)O)C(=O)N[C@@H](CCC(=O)O)C(=O)N[C@@H](CCC(N)=O)C(=O)N[C@@H](C)C(=O)N[C@@H](C)C(=O)N[C@@H](CCCCN)C(=O)N[C@@H](CCC(=O)O)C(=O)N[C@@H](Cc1ccccc1)C(=O)N[C@H](C(=O)N[C@@H](CS)C(=O)N[C@@H](Cc1c[nH]c2ccccc12)C(=O)N[C@@H](CC(C)C)C(=O)N[C@@H](CC(C)C)C(=O)N[C@@H](CC(=O)O)C(=O)N[C@H](C(=O)N[C@@H](CCC(=O)O)C(N)=O)[C@@H](C)O)[C@@H](C)CC)C(=O)O [compound 83]
 |  |  | 104 | 44 | HSQGTFTSDYSKYLDERRAKEFVQWLMNT-NH2 [compound 68]

— patent US8703701B2 (Indiana University Research and Technology Corporation, priority 2009, dated 2014)
